Measurements as given in the supplement of paper PMC10307832.

Legend:
Assay in all cases: relative viability (nuclei count vs DMSO), 5 days (fraction); higher = more cells survive
SGI-1776 + Navitoclax = compound: CN1CCC(CNc2ccc3ncc(-c4cccc(OC(F)(F)F)c4)n3n2)CC1 [SGI-1776] + CC1(C)CCC(c2ccc(Cl)cc2)=C(CN2CCN(c3ccc(C(=O)NS(=O)(=O)c4ccc(N[C@H](CCN5CCOCC5)CSc5ccccc5)c(S(=O)(=O)C(F)(F)F)c4)cc3)CC2)C1 [Navitoclax] (partner 0.5 µM)
Procedure, shortened: (§1)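 One day after seeding in 1536-well plates, lung cancer cell lines were dosed by pin tool. Dosing was either single-drug or a fixed anchor-drug dose plus five library-drug doses (not always all listed) in √10 steps. After 5 days, nuclei were stained in one fix-and-stain step and counted on 4× images, and relative viability is the nuclei count of treated wells over that of vehicle wells, given as the median of duplicate plates.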

[1] = compound: C1COCCN1C2=NC(=NC3=C2OC4=C3C=CC=N4)C5=CC(=CC=C5)NC(=O)C6=CN=C(C=C6)N + CCNC(=O)c1noc(-c2cc(C(C)C)c(O)cc2O)c1-c1ccc(CN2CCOCC2)cc1 [Luminespib] (partner 0.01 µM)
Procedure, shortened: as §1

[2] = compound: C1COCCN1C2=NC(=NC3=C2OC4=C3C=CC=N4)C5=CC(=CC=C5)NC(=O)C6=CN=C(C=C6)N + CS(=O)(=O)CCNCc1ccc(-c2ccc3ncnc(Nc4ccc(OCc5cccc(F)c5)c(Cl)c4)c3c2)o1 [Lapatinib] (partner 2 µM)
Procedure, shortened: as §1

Entinostat + OSI-027 = compound: Nc1ccccc1NC(=O)c1ccc(CNC(=O)OCc2cccnc2)cc1 [Entinostat] + COc1cccc2cc(-c3nc([C@H]4CC[C@H](C(=O)O)CC4)n4ncnc(N)c34)[nH]c12 [OSI-027] (partner 0.5 µM)
Procedure, shortened: as §1

Row | Cell Line | relative viability (SGI-1776 + Navitoclax; first compound 0.08 µM) | relative viability (SGI-1776 + Navitoclax; first compound 0.8 µM) | relative viability (SGI-1776 + Navitoclax; first compound 2.53 µM) | relative viability (SGI-1776 + Navitoclax; first compound 8 µM) | relative viability ([1]; first compound 0.02 µM) | relative viability ([1]; first compound 0.06325 µM) | relative viability ([1]; first compound 0.2 µM) | relative viability ([1]; first compound 0.6325 µM) | relative viability ([1]; first compound 2 µM) | relative viability ([2]; first compound 0.02 µM) | relative viability ([2]; first compound 0.06325 µM) | relative viability ([2]; first compound 0.2 µM) | relative viability ([2]; first compound 0.6325 µM) | relative viability ([2]; first compound 2 µM) | relative viability (Entinostat + OSI-027; first compound 0.02 µM) | relative viability (Entinostat + OSI-027; first compound 0.06325 µM) | relative viability (Entinostat + OSI-027; first compound 0.2 µM) | relative viability (Entinostat + OSI-027; first compound 0.6325 µM) | relative viability (Entinostat + OSI-027; first compound 2 µM)
1 | NCI-H1975 | 1.21 | 1.06 | 0.883 | 0.817 | 0.157 | 0.148 | 0.202 | 0.29 | 0.3 | 0.836 | 0.841 | 0.817 | 0.874 | 0.395 | 0.532 | 0.526 | 0.467 | 0.264 | 0.209
2 | BEN | 0.0663 | 0.049 | 0.0583 | 0.0494 | 0.479 | 0.312 | 0.313 | 0.328 | 0.42 | 0.765 | 0.702 | 0.744 | 0.673 | 0.588 | 0.271 | 0.353 | 0.323 | 0.302 | 0.217
3 | NCI-H322M | 1.28 | 1.25 | 1.15 | 1.12 | 0.988 | 0.981 | 0.742 | 0.735 | 0.484 | 0.553 | 0.574 | 0.506 | 0.604 | 0.45 | 0.608 | 0.54 | 0.558 | 0.483 | 0.371
4 | SK-MES-1 | 1.35 | 1.23 | 1.27 | 1.15 | 0.736 | 0.907 | 0.816 | 0.657 | 0.494 | 0.455 | 0.492 | 0.431 | 0.424 | 0.312 | 0.584 | 0.66 | 0.792 | 0.595 | 0.532
5 | HOP-62 | 1.09 | 1.11 | 1.09 | 0.967 | 0.882 | 0.983 | 0.833 | 0.863 | 0.44 | 0.945 | 1.42 | 1.06 | 0.925 | 0.531 | 0.801 | 0.882 | 0.85 | 0.49 | 0.248
6 | NCI-H2405 | 0.823 | 0.804 | 0.779 | 0.452 | 0.647 | 0.644 | 0.639 | 0.536 | 0.473 | 0.983 | 1.05 | 1.04 | 1.02 | 0.902 | 0.574 | 0.652 | 0.582 | 0.567 | 0.414
7 | NCI-H1650 | 1.22 | 1.21 | 0.981 | 0.762 | 0.186 | 0.202 | 0.198 | 0.233 | 0.166 | 0.791 | 0.792 | 0.7 | 0.775 | 0.613 | 0.73 | 0.585 | 0.589 | 0.349 | 0.184
8 | NCI-H1355 | 0.952 | 0.967 | 0.883 | 0.798 | 0.708 | 0.741 | 0.7 | 0.58 | 0.693 | 0.95 | 1.01 | 0.997 | 0.936 | 0.814 | 0.476 | 0.434 | 0.397 | 0.27 | 0.252
